Experimental findings from patent US10988466B2, “Heterocyclic derivatives useful as SHP2 inhibitors” (Jacobio Pharmaceuticals Co., Ltd., priority 2017, dated 2021) are described below.
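Also: compounds preincubated 30 min at room temperature in the assay mixture, activity referenced to a 0.5% (v/v) DMSO control taken as 100%, run in triplicate.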

In the assay the target is T1, SHP2 (Homo sapiens, UniProt Q06124).
T1 sequence (Q06124 1-593): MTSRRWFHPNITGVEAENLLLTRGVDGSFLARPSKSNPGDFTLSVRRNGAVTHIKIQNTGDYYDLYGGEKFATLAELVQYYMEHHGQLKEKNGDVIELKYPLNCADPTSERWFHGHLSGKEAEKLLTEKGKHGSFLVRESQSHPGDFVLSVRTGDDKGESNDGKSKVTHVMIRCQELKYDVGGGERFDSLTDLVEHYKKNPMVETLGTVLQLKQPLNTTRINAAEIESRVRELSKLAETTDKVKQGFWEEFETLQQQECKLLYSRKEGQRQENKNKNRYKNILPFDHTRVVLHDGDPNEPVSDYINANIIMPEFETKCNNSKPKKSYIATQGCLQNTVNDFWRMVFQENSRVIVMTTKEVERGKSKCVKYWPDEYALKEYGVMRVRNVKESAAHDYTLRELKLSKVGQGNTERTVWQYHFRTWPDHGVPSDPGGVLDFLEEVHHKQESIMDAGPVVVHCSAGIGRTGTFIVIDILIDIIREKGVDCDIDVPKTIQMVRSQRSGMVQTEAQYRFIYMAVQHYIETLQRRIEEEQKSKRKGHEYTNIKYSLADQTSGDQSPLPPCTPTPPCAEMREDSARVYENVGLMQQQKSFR
The assay is described as follows: biochemical. The note with it: read-out: SHP2 inhibition (%)@0.1 μM.
The term inhibition denotes the percentage by which the read-out fell short of the control. Turning to `N[C@@H]1c2cccnc2CC12CCN(c1cnc(Sc3c(Cl)cncc3Cl)cn1)CC2` [Example 110, (S)-1′-(5-((3,5-dichloropyridin-4-yl)thio)pyrazin-2-yl)-5,7-dihydrospiro [cyclopenta[b]pyridine-6,4′-piperidin]-5-amine], the inhibition at 0.1 µM stood at 61%. Regarding `Nc1nc(N2CCC3(CC2)Cc2ccc(Cl)cc2[C@H]3N)cnc1Sc1ccnc(N)c1Cl` [Example 15, (S)-1′-(6-amino-5-((2-amino-3-chloropyridin-4-yl)thio)pyrazin-2-yl)-6-chloro-1,3-dihydrospiro[indene-2,4′-piperidin]-1-amine], the inhibition at 0.1 µM amounted to 83%. For the molecule `Nc1nc(N2CCC3(CC2)Cc2ccc(Br)cc2[C@H]3N)cnc1Sc1ccnc(N)c1Cl` [Example 28, (S)-1′-(6-amino-5-((2-amino-3-chloropyridin-4-yl)thio)pyrazin-2-yl)-6-bromo-1,3-dihydro-spiro[indene-2,4′-piperidin]-1-amine], the inhibition at 0.1 µM was 75%. `Nc1nc(N2CCC3(CC2)Cc2c(Br)cccc2[C@H]3N)cnc1Sc1ccnc(N)c1Cl` [Example 29, (S)-1′-(6-amino-5-((2-amino-3-chloropyridin-4-yl)thio)pyrazin-2-yl)-4-bromo-1,3-dihydro-spiro[indene-2,4′-piperidin]-1-amine]: the inhibition at 0.1 µM turned out to be 77%. Take `N#Cc1cccc2c1CC1(CCN(c3cnc(Sc4ccnc(N)c4Cl)c(N)n3)CC1)[C@@H]2N` [Example 16, (S)-1-amino-1′-(6-amino-5-((2-amino-3-chloropyridin-4-yl)thio)pyrazin-2-yl)-1,3-dihydrospiro [indene-2,4′-piperidine]-4-carbonitrile]: the inhibition at 0.1 µM came out at 75%. With `Nc1nc(N2CCC3(CC2)Cc2ccccc2[C@@H]3N)cnc1Sc1ccnc(N)c1Cl` [Example 18, (R)-1′-(6-amino-5-((2-amino-3-chloropyridin-4-yl)thio)pyrazin-2-yl)-1,3-dihydrospiro[indene-2,4′-piperidin]-1-amine], the inhibition at 0.1 µM is 35%.

With `N[C@@H]1c2cccnc2CC12CCN(c1cnc(Sc3cc(Cl)ncc3C(F)(F)F)cn1)CC2` [Example 119, (S)-1′-(5-((2-chloro-5-(trifluoro-methyl)pyridin-4-yl)thio)pyrazin-2-yl)-5,7-dihydro-spiro[cyclopenta [b]pyridine-6,4′-piperidin]-5-amine], the inhibition at 0.1 µM is 61%. For the molecule `N=C1c2csc(Br)c2CC12CCN(c1cnc(Sc3ccnc(N)c3Cl)c(N)n1)CC2` [Example 145, 3-((2-amino-3-chloropyridin-4-yl)thio)-6-(1-bromo-4-imino-4H,6H-spiro [cyclopenta[c]thiophene-5,4′-piperidin]-1′-yl)pyrazin-2-amine], the inhibition at 0.1 µM worked out at 79%. Turning to `N[C@@H]1c2cccnc2CC12CCN(c1cnc(Sc3cc(F)ncc3Cl)cn1)CC2` [Example 101, (S)-1′-(5-((5-chloro-2-fluoro-pyridin-4-yl)thio)pyrazin-2-yl)-5,7-dihydrospiro[cyclopenta [b]pyridine-6,4′-piperidin]-5-amine], the inhibition at 0.1 µM came out at 83%. Take `CN(C)c1nccc(Sc2cnc(N3CCC4(CC3)Cc3ccccc3[C@H]4N)cn2)c1Cl` [Example 49, (S)-1′-(5-((3-chloro-2-(dimethylamino)pyridin-4-yl)thio)pyrazin-2-yl)-1,3-dihydrospiro[indene-2,4′-piperidin]-1-amine]: the inhibition at 0.1 µM was found to be 85%. On to `N#Cc1cc2c(cc1F)CC1(CCN(c3cnc(Sc4ccnc(N)c4Cl)c(N)n3)CC1)[C@@H]2N` [Example 42, (S)-1-amino-1′-(6-amino-5-((2-amino-3-chloropyridin-4-yl)thio)pyrazin-2-yl)-5-fluoro-1,3-dihydro-spiro[indene-2, 4′-piperidine]-6-carbonitrile], for which the inhibition at 0.1 µM worked out at 49%.

Take `COc1cccc2c1C(N)C1(CCN(c3cnc(Sc4ccnc(N)c4Cl)c(N)n3)CC1)C2` (stereo not drawn) [Example 148, 1′-(6-amino-5-((2-amino-3-chloropyridin-4-yl)thio)pyrazin-2-yl)-7-methoxy-1,3-dihydrospiro[indene-2,4′-piperidin]-1-amine]: the inhibition at 0.1 µM is 72%. For the molecule `N[C@@H]1c2cccnc2CC12CCN(c1cnc(Sc3ccnc(F)c3Cl)cn1)CC2` [Example 115, (S)-1′-(5-((3-chloro-2-fluoropyridin-4-yl)thio)pyrazin-2-yl)-5,7-dihydrospiro [cyclopenta[b]pyridine-6,4′-piperidin]-5-amine], the inhibition at 0.1 µM was determined as 86%. With `Nc1nc(N2CCC3(CC2)Cc2cnccc2[C@H]3N)cnc1Sc1ccnc(N)c1Cl` [Example 22, (S)-1′-(6-amino-5-((2-amino-3-chloropyridin-4-yl)thio)pyrazin-2-yl)-5,7-dihydrospiro [cyclopenta[c]pyridine-6,4′-piperidin]-5-amine], the inhibition at 0.1 µM was 30%. With `Nc1cccc(Sc2cnc(N3CCC4(CC3)Cc3ccccc3[C@H]4N)cn2)c1Cl` [Example 50, (S)-1′-(5-((3-amino-2-chlorophenyl)thio)pyrazin-2-yl)-1,3-dihydrospiro [indene-2,4′-piperidin]-1-amine] the figure was 77%; with `CC(=O)N1CC(F)(F)c2c(Sc3ncc(N4CCC5(CC4)Cc4ccccc4[C@H]5N)nc3N)cccc21` [Example 78, (S)-1-(4-((3-amino-5-(1-amino-1,3-dihydrospiro[indene-2,4′-piperidin]-1′-yl)pyrazin-2-yl)thio)-3,3-difluoroindolin-1-yl)ethan-1-one], 67%; with `Nc1nc(N2CCC3(CC2)Cc2cc(F)c(F)c(F)c2[C@H]3N)cnc1Sc1ccnc(N)c1Cl` [Example 61, (S)-1′-(6-amino-5-((2-amino-3-choropyridin-4-yl)thio)pyrazin-2-yl)-5,6,7-trifluoro-1,3-dihydro-spiro[indene-2,4′-piperidin]-1-amine], 74%. As to `Nc1nc(N2CCC3(CC2)Cc2ccccc2[C@H]3N)cnc1Sc1cccc2[nH]cc(F)c12` [Example 157, (S)-1′-(6-amino-5-((3-fluoro-1H-indol-4-yl)thio)pyrazin-2-yl)-1,3-dihydrospiro[indene-2,4′-piperidin]-1-amine], the inhibition at 0.1 µM worked out at 78%. For the molecule `Nc1nc(N2CCC3(CC2)Cc2ccc(C(=O)N4CCCCC4)cc2[C@H]3N)cnc1Sc1ccnc(N)c1Cl` [Example 59, (S)-(1-amino-1′-(6-amino-5-((2-amino-3-chloropyridin-4-yl)thio)pyrazin-2-yl)-1,3-dihydrospiro [indene-2,4′-piperidin]-6-yl)(piperidin-1-yl)methanone], the inhibition at 0.1 µM was determined as 69%. In the case of `Nc1nccc(Sc2cnc(N3CCC4(CC3)c3ccccc3CC4N)cn2)c1Cl` (stereo not drawn) [Example 132, 1′-(5-((2-amino-3-chloropyridin-4-yl)thio)pyrazin-2-yl)-2,3-dihydrospiro[indene-1,4′-piperidin]-2-amine] it was 78%; in that of `Nc1nc(N2CCC3(CC2)Cc2ccccc2/C3=N\O)cnc1Sc1ccnc(N)c1Cl` [Example 149, (Z)-1′-(6-amino-5-((2-amino-3-chloropyridin-4-yl)thio)pyrazin-2-yl) spiro[indene-2,4′-piperidin]-1(3H)-one oxime], 28%.
